Test results from ChEMBL document CHEMBL1857833, “Screening and optimization of specific chemical series against human African Trypanosomiasis (HAT)”.
Values after ≈ are worked out from the molar mass of the structure shown. Values joined by “and” are separate entries in the source; they are usually repeats but may differ in a detail not shown here. Identical values can stand only once.

Assays:
[1] = DNDI: Cytotoxicity against L929 mouse fibroblasts, CYTO-SP, 24 hour; assay type: toxicity, cell-based; settings: mouse, L929 mouse fibroblasts
[2] = DNDI: Cytotoxicity against L929 mouse fibroblasts, 72 hour.; assay type: toxicity, cell-based; settings: mouse, L929 mouse fibroblasts
[3] = tested on: Trypanosoma brucei; assay: DNDI: Inhibition of Human African Trypanosomiasis, Cross 22, in vitro; assay type: functional, organism-based
[4] = tested on: Trypanosoma brucei; assay: DNDI: Inhibition of Human African Trypanosomiasis, SBRI 427, in vitro; assay type: functional, organism-based
[5] = tested on: Trypanosoma cruzi; assay: DNDI: Inhibition of Chagas Disease parasite Trypanosoma cruzi (Tulahuen LacZ, Clone C4), in vitro.; assay type: functional, organism-based
[6] = DNDI: Cytotoxicity against L-6 rat myoblasts from skeletal muscle cells; assay type: toxicity, cell-based, L6; settings: L-6 rat skeletal muscle myoblasts
[7] = tested on: Trypanosoma brucei rhodesiense; assay: DNDI: Inhibition of Human African Trypanosomiasis (HAT), STIB 900, in vitro; assay type: functional, organism-based
[8] = tested on: Leishmania donovani; assay: DNDI: Inhibition of formation of Leishmania donovani (strain MHOM/ET/67/L82) axenic amastigotes, in vitro.; assay type: functional, organism-based
[9] = tested on: Plasmodium falciparum; assay: DNDI: Inhibition of the malaria parasite Plasmodium falciparum, in vitro; assay type: functional, organism-based; settings: K1
[10] = DNDI: Lipophilicity measured in Chromatographic hydrophobicity index (CHI) assay, pH 7.4; assay type: physicochemical; settings: buffer
[11] = DNDI: Solubility in phosphate buffered saline at pH7.4 measured by nephelometry at room temperature (NEPH-RT); assay type: physicochemical; settings: pH 7.4
[12] = mouse, microsomes, 1 µM
Description: DNDI: in vitro intrinsic clearance in mouse liver microsomes at a concentration of 1uM

[13] = in vitro; settings: mouse, liver microsomes, t (1 / 2)
Description: DNDI: half life in mouse liver microsomes at a concentration of 1uM

[14] = Trypanosoma brucei, SBRI 427, read-out: IC50

Structure (SMILES) | IC50 at 24 h [1] | IC50 at 72 h [2] | IC50 [3] | IC50 [4] | IC50 [4, 14] | IC50 [5] | IC50 [6] | IC50 [7] | IC50 [8] | IC50 [9] | chromatographic logD [10] | solubility kinetic [11] | CLint in vitro [12] | half-life at 1 µM [13]
Clc1ccc(-c2nc(CNC3CCCCCC3)co2)cc1 | 26.6 µg/mL (≈ 87.3 µM) | 3.43 µg/mL (≈ 11.3 µM) | 1.45 µg/mL (≈ 4.76 µM) | 1.61 µg/mL and 1.55 µg/mL | 1.27 µg/mL (≈ 4.17 µM) |  |  |  |  |  |  |  |  | 
CC1(C)[C@H]2CC[C@@H](CNCc3coc(-c4ccc(Cl)cc4)n3)[C@@H]1C2 | > 50 µg/mL | 3.52 µg/mL (≈ 10.2 µM) | 1.04 µg/mL (≈ 3.02 µM) | 0.9 µg/mL and 1.53 µg/mL | 0.8 µg/mL (≈ 2.32 µM) |  |  |  |  |  |  |  |  | 
CC1CC(NCc2coc(-c3ccc(C(C)(C)C)cc3)n2)CC(C)(C)C1 (stereo unspecified) | > 50 µg/mL | > 50 µg/mL | > 5 µg/mL |  | > 5 µg/mL |  |  |  |  |  |  |  |  | 
CCCCOc1ccc(-c2nc(CN[C@@H]3C[C@@H]4C[C@H]([C@H]3C)C4(C)C)co2)cc1 | 8.05 µg/mL (≈ 21 µM) | < 3.13 µg/mL | 0.58 µg/mL (≈ 1.52 µM) | 0.61 µg/mL and 0.72 µg/mL and 0.29 µg/mL |  |  |  |  |  |  |  |  |  | 
CCC(CC)N/C(=N\O)c1ccccc1-c1ccccc1 | > 50 µg/mL | > 10 µg/mL |  |  | 1.19 µg/mL (≈ 4.21 µM) | 7.73 µg/mL (≈ 27.4 µM) | 17.2 µg/mL (≈ 60.9 µM) | 8.99 µg/mL (≈ 31.8 µM) | 13.3 µg/mL (≈ 47 µM) | 2.18 µg/mL (≈ 7.72 µM) |  |  |  | 
O/N=C(/c1ccccc1-c1ccccc1)N1CCCCC1 | > 50 µg/mL |  |  |  | > 5 µg/mL |  |  |  |  |  | 4.46 | 50 µM (≈ 14 µg/mL) | 157 µL/min/mg | 5 min
CC1CC(NCc2coc(-c3ccc(Cl)cc3)n2)CC(C)(C)C1 (stereo unspecified) | > 50 µg/mL | < 3.13 µg/mL | 0.85 µg/mL (≈ 2.55 µM) | 0.86 µg/mL and 1.52 µg/mL | 1.18 µg/mL (≈ 3.54 µM) |  |  |  |  |  |  |  |  | 
CCCCc1ccc(-c2nc(CNCCN(C)C)co2)cc1 |  | 4.87 µg/mL (≈ 16.2 µM) |  |  | 0.79 µg/mL (≈ 2.62 µM) |  |  |  |  |  | 4.97 | 1 µM (≈ 0.301 µg/mL) | 55 µL/min/mg | 15 min
O/N=C(\NC1CCCCC1)c1ccsc1 | > 50 µg/mL | > 10 µg/mL |  |  | > 5 µg/mL | > 30 µg/mL | > 83.5 µg/mL | 25.9 µg/mL (≈ 115 µM) | 13.6 µg/mL (≈ 60.8 µM) | > 5 µg/mL |  |  |  | 
CCC(C)C(NCc1ccccc1OC)c1nc(-c2ccccc2)c(N2CCCCC2)o1 (stereo unspecified) |  | > 10 µg/mL |  |  | 4.82 µg/mL (≈ 11.1 µM) |  |  |  |  |  | > 5.2 | 2 µM (≈ 0.867 µg/mL) | 227 µL/min/mg | 4 min
CC(C)(C)c1ccc(-c2nc(CNC3[C@H]4C[C@@H]5C[C@@H](C[C@H]3C5)C4)co2)cc1 (stereo partly specified) | > 50 µg/mL | 13 µg/mL (≈ 35.8 µM) | 0.83 µg/mL (≈ 2.28 µM) | 0.87 µg/mL and 0.51 µg/mL and 1.1 µg/mL |  |  |  |  |  |  |  |  | 14 µL/min/mg | 59 min
CC1CCC(N/C(=N\O)c2cccnc2Oc2ccccc2Cl)CC1 (stereo unspecified) | > 50 µg/mL | > 10 µg/mL |  |  |  | 4.72 µg/mL (≈ 13.1 µM) | 50.2 µg/mL (≈ 139 µM) | 20.9 µg/mL (≈ 58.1 µM) | 6.18 µg/mL (≈ 17.2 µM) | 4.4 µg/mL (≈ 12.2 µM) |  |  |  | 
c1ccc(-c2ccc(-c3nc(CNC4[C@H]5C[C@@H]6C[C@@H](C[C@H]4C6)C5)co3)cc2)cc1 (stereo partly specified) | > 50 µg/mL | 9.8 µg/mL (≈ 25.5 µM) | 0.92 µg/mL (≈ 2.39 µM) | 0.7 µg/mL and 0.85 µg/mL | 1.18 µg/mL (≈ 3.07 µM) |  |  |  |  |  |  |  |  | 
CCCCCC(C)NCc1coc(-c2ccccc2)n1 (stereo unspecified) | 32 µg/mL (≈ 117 µM) | > 10 µg/mL |  |  | 4.72 µg/mL (≈ 17.3 µM) | 14.6 µg/mL (≈ 53.6 µM) | 14.3 µg/mL (≈ 52.4 µM) | 0.823 µg/mL (≈ 3.02 µM) | 29.5 µg/mL (≈ 108 µM) | 1.21 µg/mL (≈ 4.44 µM) |  |  |  | 
CCCCc1ccc(-c2nc(CNCCN3CCCC3)co2)cc1 |  | 3.87 µg/mL (≈ 11.8 µM) |  |  | 0.84 µg/mL (≈ 2.57 µM) |  |  |  |  |  | 4.89 | < 1 µM | 33 µL/min/mg | 26 min
C[C@@H]1[C@H]2C[C@@H](C[C@H]1NCc1coc(-c3ccc(-c4ccccc4)cc3)n1)C2(C)C | 8.15 µg/mL (≈ 21.1 µM) | < 3.13 µg/mL | 0.37 µg/mL (≈ 0.957 µM) | 0.19 µg/mL (≈ 0.492 µM) | 0.24 µg/mL (≈ 0.621 µM) |  |  |  |  |  |  |  |  | 
CCCCOc1ccc(-c2nc(CNC3[C@H]4C[C@@H]5C[C@@H](C[C@H]3C5)C4)co2)cc1 (stereo partly specified) | 15.9 µg/mL (≈ 41.8 µM) | < 3.13 µg/mL | 0.34 µg/mL (≈ 0.893 µM) | 0.37 µg/mL and 0.29 µg/mL | 0.36 µg/mL (≈ 0.946 µM) |  |  |  |  |  |  |  |  | 
O/N=C(/Nc1ccc(F)cc1)c1ccccc1-c1ccccc1 | > 50 µg/mL |  |  |  | 3.46 µg/mL (≈ 11.3 µM) |  |  |  |  |  | 3.98 | 25 µM (≈ 7.66 µg/mL) | 59 µL/min/mg | 14 min
CCCCCC(C)NCc1coc(-c2ccc(OCC(=O)c3ccccc3)cc2)n1 (stereo unspecified) |  | 1.74 µg/mL (≈ 4.28 µM) |  |  | 0.59 µg/mL (≈ 1.45 µM) |  |  |  |  |  | 4.16 | 2 µM (≈ 0.813 µg/mL) | 188 µL/min/mg | 5 min
